In brackets after ≈: the same amount, converted by molar mass. Where two headings read alike, the source gives them in different places.
Assays:
[1] = tested on: non-replicating M. tuberculosis; assay: microbe, parasite or virus in culture; type: cell-based, Mycobacterium tuberculosis; details: for MIC: Mycobacterium tuberculosis
HepG2 cells = type: cell-based
Procedure: Three lead compounds were identified in the first round of high throughput screening (700 compounds), which had minimal inhibitory concentrations (MIC) of 0.4-0.8 μg/mL after a six day exposure to drug (NRd6) in the model of non-replication at pH 5.0, and LD50's of 100 to >100 μg/mL against HepG2 cells (a 2 day exposure).
Furthermore, LD50 values were determined using a human hepatoma cell line (HepG2) using intracellular ATP levels as a measurement that correlated with cellular viability.

[2] = tested on: replicating M. tuberculosis; assay: MIC under replication (R) conditions; type: cell-based, Mycobacterium tuberculosis; details: Mycobacterium tuberculosis; Table 9; read-out: MIC R
[3] = Table 8, ranges from multiple assays
[4] = 72 h, Table 9, 3 Day Exposure to Drug, read-out: MIC NR 0.01 Inoc.
[5] = 72 h, Table 9, 3 Day Exposure to Drug, read-out: MIC NR 0.1 Inoc.
[6] = read-out: MIC NR at 0.01 Inoc. and 3 Day Exposure to Drug, 7 Day Outgrowth, Table 8, ranges from multiple assays
[7] = read-out: MIC NR at 0.01 Inoc. and 3 Day Exposure to Drug, 11 Day Outgrowth, Table 8, ranges from multiple assays

SMILES: CCCOC(=O)C1=C(C)CS[C@@H]2[C@H](NC(=O)COc3ccc(Cl)cc3)C(=O)N12 [Compound 45]
- MIC NR at 0.01 Inoc. and 3 Day Exposure to Drug, 7 Day Outgrowth [1, 3]: 0.39 µg/mL (≈ 0.918 µM)
- MIC NR at 0.01 Inoc. and 3 Day Exposure to Drug, 11 Day Outgrowth [1, 3]: 0.39 µg/mL (≈ 0.918 µM)
- HepG2 Toxicity LD50 (HepG2 cells; Table 8): 100 µg/mL

SMILES: CC1=C(C(=O)O)N2C(=O)[C@@H](NC(=O)c3ccc(Cl)cc3)[C@H]2SC1 [Compound 114]
- MIC [1, 4]: > 100 µg/mL
- MIC [1, 5]: > 100 µg/mL
- HepG2 LD50 (HepG2 cells; human, 2 day): >100 µg/mL
- MIC [2]: > 100 µg/mL

SMILES: CC1=C(C(=O)OCc2ccccc2)N2C(=O)[C@@H](NC(=O)COc3ccc(Cl)cc3)[C@H]2SC1 [Compound 102]
- MIC [1, 6]: 0.78 µg/mL (≈ 1.65 µM)
- MIC [1, 7]: 1.56 µg/mL (≈ 3.3 µM)
- HepG2 Toxicity LD50 (HepG2 cells; human, 2 day): >100 µg/mL

SMILES: CCCOC(=O)C1=C(C)CS[C@@H]2[C@H](NC(=O)CCc3ccccc3)C(=O)N12 [Compound 48]
- MIC NR at 0.01 Inoc. and 3 Day Exposure to Drug, 7 Day Outgrowth [1, 3]: 0.10 µg/mL (≈ 0.257 µM)
- MIC NR at 0.01 Inoc. and 3 Day Exposure to Drug, 11 Day Outgrowth [1, 3]: 0.20 µg/mL (≈ 0.515 µM)
- HepG2 Toxicity LD50 (HepG2 cells; Table 8): >100 µg/mL

SMILES: C#CCOC(=O)C1=C(C)CS[C@@H]2[C@H](NC(=O)CCc3ccc(Cl)cc3)C(=O)N12 [Compound 97]
- MIC NR at 0.01 Inoc. and 3 Day Exposure to Drug, 7 Day Outgrowth [1, 3]: 0.39 µg/mL (≈ 0.931 µM)
- MIC NR at 0.01 Inoc. and 3 Day Exposure to Drug, 11 Day Outgrowth [1, 3]: 0.78 µg/mL (≈ 1.86 µM)
- HepG2 Toxicity LD50 (HepG2 cells; Table 8): 100 µg/mL

SMILES: C#CCCC(=O)N[C@@H]1C(=O)N2C(C(=O)OCCC)=C(C)CS[C@H]12 [Compound 34]
- MIC NR at 0.01 Inoc. and 3 Day Exposure to Drug, 7 Day Outgrowth [1, 3]: 1.56 µg/mL (≈ 4.64 µM)
- MIC NR at 0.01 Inoc. and 3 Day Exposure to Drug, 11 Day Outgrowth [1, 3]: 3.13 µg/mL (≈ 9.3 µM)
- HepG2 Toxicity LD50 (HepG2 cells; Table 8): >100 µg/mL

SMILES: CCOC(=O)C1=C(C)CS[C@@H]2[C@H](NC(=O)CCc3ccccc3)C(=O)N12 [Compound 49]
- MIC NR at 0.01 Inoc. and 3 Day Exposure to Drug, 7 Day Outgrowth [1, 3]: 0.20 µg/mL (≈ 0.534 µM)
- MIC NR at 0.01 Inoc. and 3 Day Exposure to Drug, 11 Day Outgrowth [1, 3]: 0.39 µg/mL (≈ 1.04 µM)
- HepG2 Toxicity LD50 (HepG2 cells; Table 8): >100 µg/mL

SMILES: CCCOC(=O)C1=C(C)CS[C@@H]2[C@H](NC(=O)CCc3ccc(Cl)cc3)C(=O)N12 [Compound 54]
- MIC NR at 0.01 Inoc. and 3 Day Exposure to Drug, 7 Day Outgrowth [1, 3]: 0.20 µg/mL (≈ 0.473 µM)
- MIC NR at 0.01 Inoc. and 3 Day Exposure to Drug, 11 Day Outgrowth [1, 3]: 0.39 µg/mL (≈ 0.922 µM)
- HepG2 Toxicity LD50 (HepG2 cells; Table 8): >100 µg/mL

SMILES: C#CCOC(=O)C1=C(C)CS[C@@H]2[C@H](NC(=O)CCc3ccccc3)C(=O)N12 [Compound 91]
- MIC NR at 0.01 Inoc. and 3 Day Exposure to Drug, 7 Day Outgrowth [1, 3]: 0.78 µg/mL (≈ 2.03 µM)
- MIC NR at 0.01 Inoc. and 3 Day Exposure to Drug, 11 Day Outgrowth [1, 3]: 1.56 µg/mL (≈ 4.06 µM)
- HepG2 Toxicity LD50 (HepG2 cells; Table 8): >100 µg/mL

SMILES: CCOC(=O)C1=C(C)CS[C@@H]2[C@H](NC(=O)CCc3ccc(Cl)cc3)C(=O)N12 [Compound 55]
- MIC NR at 0.01 Inoc. and 3 Day Exposure to Drug, 7 Day Outgrowth [1, 3]: 0.20 µg/mL (≈ 0.489 µM)
- MIC NR at 0.01 Inoc. and 3 Day Exposure to Drug, 11 Day Outgrowth [1, 3]: 0.39 µg/mL (≈ 0.954 µM)
- HepG2 Toxicity LD50 (HepG2 cells; Table 8): >100 µg/mL

SMILES: CCOC(=O)C1=C(C)CS[C@@H]2[C@H](NC(=O)CCc3ccc(OC)cc3)C(=O)N12 [Compound 52]
- MIC NR at 0.01 Inoc. and 3 Day Exposure to Drug, 7 Day Outgrowth [1, 3]: 0.20 µg/mL (≈ 0.494 µM)
- MIC NR at 0.01 Inoc. and 3 Day Exposure to Drug, 11 Day Outgrowth [1, 3]: 0.39 µg/mL (≈ 0.964 µM)
- HepG2 Toxicity LD50 (HepG2 cells; Table 8): >100 µg/mL

SMILES: CC1=C(C(=O)OCc2ccccc2)N2C(=O)[C@@H](NC(=O)CCc3ccc(Cl)cc3)[C@H]2SC1 [Compound 100]
- MIC [1, 6]: 0.39 µg/mL (≈ 0.828 µM)
- MIC [1, 7]: 0.78 µg/mL (≈ 1.66 µM)
- HepG2 Toxicity LD50 (HepG2 cells; human, 2 day): 50 µg/mL

SMILES: CCCCOc1ccc(CCC(=O)N[C@@H]2C(=O)N3C(C(=O)O)=C(C)CS[C@H]23)cc1 [Compound 110]
- MIC [1, 4]: 100 µg/mL (≈ 239 µM)
- MIC [1, 5]: > 100 µg/mL
- HepG2 LD50 (HepG2 cells; human, 2 day): >100 µg/mL
- MIC [2]: 100 µg/mL (≈ 239 µM)

SMILES: CCCOC(=O)C1=C(C)CS[C@@H]2[C@H](NC(=O)CCc3ccc(OC)cc3)C(=O)N12 [Compound 99]
- MIC [1, 6]: 0.1 µg/mL (≈ 0.239 µM)
- MIC [1, 7]: 0.2 µg/mL (≈ 0.478 µM)
- HepG2 Toxicity LD50 (HepG2 cells; human, 2 day): >100 µg/mL

SMILES: CC1=C(C(=O)O)N2C(=O)[C@@H](NC(=O)CCc3ccccc3Cl)[C@H]2SC1 [Compound 116]
- MIC [1, 4]: > 100 µg/mL
- MIC [1, 5]: > 100 µg/mL
- HepG2 LD50 (HepG2 cells; human, 2 day): >100 µg/mL
- MIC [2]: > 100 µg/mL

SMILES: C#CCOC(=O)C1=C(C)CS[C@@H]2[C@H](NC(=O)COc3ccccc3)C(=O)N12 [Compound 82]
- MIC NR at 0.01 Inoc. and 3 Day Exposure to Drug, 7 Day Outgrowth [1, 3]: 1.56 µg/mL (≈ 4.04 µM)
- MIC NR at 0.01 Inoc. and 3 Day Exposure to Drug, 11 Day Outgrowth [1, 3]: 3.13 µg/mL (≈ 8.1 µM)
- HepG2 Toxicity LD50 (HepG2 cells; Table 8): >100 µg/mL

SMILES: CC1=C(C(=O)O)N2C(=O)[C@@H](NC(=O)CCc3ccc(F)cc3)[C@H]2SC1 [Compound 113]
- MIC [1, 4]: > 100 µg/mL
- MIC [1, 5]: > 100 µg/mL
- HepG2 LD50 (HepG2 cells; human, 2 day): >100 µg/mL
- MIC [2]: 100 µg/mL (≈ 274 µM)

SMILES: COc1ccc(CCC(=O)N[C@@H]2C(=O)N3C(C(=O)OCc4ccccc4)=C(C)CS[C@H]23)cc1 [Compound 101]
- MIC [1, 6]: 0.39 µg/mL (≈ 0.836 µM)
- MIC [1, 7]: 0.78 µg/mL (≈ 1.67 µM)
- HepG2 Toxicity LD50 (HepG2 cells; human, 2 day): >100 µg/mL

SMILES: CCOC(=O)C1=C(C)CS[C@@H]2[C@H](NC(=O)COc3ccc(OC)cc3)C(=O)N12 [Compound 43]
- MIC NR at 0.01 Inoc. and 3 Day Exposure to Drug, 7 Day Outgrowth [1, 3]: 0.39 µg/mL (≈ 0.96 µM)
- MIC NR at 0.01 Inoc. and 3 Day Exposure to Drug, 11 Day Outgrowth [1, 3]: 1.56 µg/mL (≈ 3.84 µM)
- HepG2 Toxicity LD50 (HepG2 cells; Table 8): >100 µg/mL

SMILES: CCCOC(=O)C1=C(C)CS[C@@H]2[C@H](NC(=O)COc3ccc(OC)cc3)C(=O)N12 [Compound 42]
- MIC NR at 0.01 Inoc. and 3 Day Exposure to Drug, 7 Day Outgrowth [1, 3]: 0.20 µg/mL (≈ 0.476 µM)
- MIC NR at 0.01 Inoc. and 3 Day Exposure to Drug, 11 Day Outgrowth [1, 3]: 0.39 µg/mL (≈ 0.927 µM)
- HepG2 Toxicity LD50 (HepG2 cells; Table 8): >100 µg/mL
